Assay results published in US10221426B2, “Constitutively active PYR/PYL receptor proteins for improving plant stress tolerance” (The Regents of the University of California, priority 2009, dated 2019).

Biological target: T1, PYL4 and HAB1 (Arabidopsis thaliana, UniProt O80920)
T1 construct: vector pHB3; made in house
T1 sequence (O80920 1-207): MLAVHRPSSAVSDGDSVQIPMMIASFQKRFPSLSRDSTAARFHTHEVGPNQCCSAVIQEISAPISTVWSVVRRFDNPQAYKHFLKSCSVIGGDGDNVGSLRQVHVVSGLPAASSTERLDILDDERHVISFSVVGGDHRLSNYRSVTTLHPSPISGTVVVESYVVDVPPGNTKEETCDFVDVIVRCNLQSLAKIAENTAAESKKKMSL
T1 sequence (Q9CAJ0 23-511 partner): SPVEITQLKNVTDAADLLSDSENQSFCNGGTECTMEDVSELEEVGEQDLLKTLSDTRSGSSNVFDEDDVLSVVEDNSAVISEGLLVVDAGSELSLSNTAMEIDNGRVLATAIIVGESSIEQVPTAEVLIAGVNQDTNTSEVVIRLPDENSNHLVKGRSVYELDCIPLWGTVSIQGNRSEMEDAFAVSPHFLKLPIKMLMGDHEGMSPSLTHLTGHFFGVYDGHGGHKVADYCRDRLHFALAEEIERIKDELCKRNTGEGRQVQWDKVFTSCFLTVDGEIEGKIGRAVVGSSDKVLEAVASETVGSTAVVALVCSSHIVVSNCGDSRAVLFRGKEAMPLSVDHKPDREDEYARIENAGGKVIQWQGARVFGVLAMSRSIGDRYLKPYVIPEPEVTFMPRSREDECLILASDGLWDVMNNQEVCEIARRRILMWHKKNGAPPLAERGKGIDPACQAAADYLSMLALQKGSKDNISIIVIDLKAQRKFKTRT
Assay: In vitro pull down assay of refolded PYL4 with HAB1
Assay type: binding
Procedure: To explore the functional implications of the PYR1-PP2C interaction, we examined if an ABA response could be reconstituted in vitro. Recombinant GST-HAB1, GST-ABI1 and GST-ABI2 were expressed in E. coli and tested for ligand-dependent interactions with 6×His-PYR1 in pull-down assays. Purified 6×His-PYR1 and GST-HAB1 (20 and 100 μg respectively, 8 μM PYR1 final concentration), were combined in 100 μl TBS containing 10 μM (+)-ABA or 1% DMSO for negative control. The reaction was incubated for 90 minutes at RT and 5 μl of PrepEase (USB) His-tagged protein purification resin was added. The resin and reaction mixture was incubated 30 min at RT with gentle shaking at 5 min intervals. The resin was washed five times with TBS containing 10 μM (+)-ABA. After the final wash, the bound protein was eluted in 20 μl SDS-PAGE buffer, boiled for 5 minutes and centrifuged. 5 μl of eluate was analyzed on SDS-PAGE. For pull-downs with ABI1 and ABI2, crude lysates were used in a similar method, except purified PP2C was replaced with cleared E. coli lysates. The amount of lysate added was determined by SDS-page analysis to yield ˜100 μg PP2C, such that the same stoichiometry was used as in assays using purified proteins.
A PYL4 6×His-tagged (SEQ ID NO:141) protein was constructed using a public pUni clone. This was recombined into the His-tagged expression vector pHB3. […]

CC1=CC(=O)CC(C)(C)[C@@]1(O)/C=C/C(C)=C\C(=O)O [ABA, Abscisic acid]
PYL4 binding to HAB1 in pull down: binds HAB1 in response to ABA
